We go through 3 molecules from patent US4452982A, “Process for the preparation of nitrogen-bridgehead condensed pyrimidine compounds, and pharmaceutical compositions containing them” (Chinoin Gyogyszer es Vegyeszeti Termekek Gyara R.T., priority 1979, dated 1984).

By ED50 is commonly meant the dose at which the effect has come halfway, by size or by number of responders. Low values mean greater potency, high ones weaker potency.

Assay [1] deals with allergic reactions. Put plainly: PCA test-method (Ovary), antiallergic activity. The note with it: for ED50: iv. The format is in vivo. The protocol: The test is carried out by the PCA test-method (Ovary: J. Immun. 81, 355 (1958)) and the Church-test (British J. Pharm. 46, 56-66 (1972); Immunology 29, 527-534 (1975)) and for comparison disodium chromoglycate is used.
In assay [2] the test system is allergic symptoms. The note with it: antiasthmatic agent, cited from earlier work.

Molecule `Cc1ccccc1NC1=CCC(C)n2c1ncc(C(=O)O)c2=O` (stereo not drawn) [6-methyl-9-(2-methylphenylamino)-4-oxo-6,7-dihydro-4H--pyrido[1,2-a]pyrimidine-3-carboxylic acid] showed an ED50 in assay [1] of 5.4 µmol/kg.
On to `CC1CC=C(Nc2ccccc2)c2ncc(C(=O)O)c(=O)n21` (stereo not drawn) [9-anilino-6-methyl-4-oxo-6,7-dihydro-4H-pyrido[1,2-a]pyrimidine-3-carboxylic acid], for which it took a dose of 1.3 µmol/kg to reach the 50% effect level in assay [1] (ED50).
`O=C(O)c1cc(=O)c2c(OCC(O)COc3cccc4oc(C(=O)O)cc(=O)c34)cccc2o1` [disodium chromoglycolate]: the ED50 in assay [1] is 1 µmol/kg. Besides, the “oral activity / route of effectiveness” value in assay [1] (oral vs. intravenous, conclusion from Table I) is “effective only when administered intravenously”. Moreover, in assay [2] (inhaler), the “effect by inhaler (background statement)” value is reported as “produces the desired effect only by using an inhaler”. Further, in assay [2] (orally), the “oral activity (background statement)” value was “not active orally”.
